This note sets out measurements from patent US20210060320A1, “TRANSDERMAL DRUG DELIVERY SYSTEM AND METHOD FOR USING SAME” (NICHIBAN CO., LTD., priority 2017, published 2021).

For the data set the following is noted: pH 8. An excerpt:
Note that in the present invention, as an index of the “water solubility” in a “water-soluble drug” or a “water-soluble steroid”, a distribution coefficient (octanol/water distribution coefficient) can be employed. The distribution coefficient can be expressed by log D by taking into consideration of the influence of pH, and the water solubility is indicated by a minus value, while the liposolubility lipophilicity is indicated by a plus value.
The distribution coefficient can be obtained in accordance with the method described in JIS Z7260-107 or […].

In the case of prednisolone sodium phosphate, the “distribution coefficient (log D)” value is given as 0. In the case of dexamethasone metasulfobenzoate sodium, the “distribution coefficient (log D)” value was −2.
